According to patent publication US8034924B2, “Process for production of crystal of purine nucleoside compound” (Ajinomoto Co., Inc., priority 2007, dated 2011):

experiment: Storage stability of crystals of 2′,3′-dideoxyinosine (increase of hypoxanthine after storage, HPLC); type: physicochemical; conditions: crystals stored at 60° C., at RH75% for 7 days; Table 1
Description: In order to examine the storage stability, the obtained crystals were stored at 60° C., at RH75% for 7 days.
The concentration of the phosphate on the surface of the crystals and the amount of hypoxanthine were analyzed in the conditions shown in the following Table 2.

Point of comparison: OC[C@@H]1CC[C@H](n2cnc3c(O)ncnc32)O1 [Ex. 3, 2′,3′-dideoxyinosine], “Increase of hypoxanthine after storage (%/DDI)” value (“Increase … (%/DDI)” below) 0.20 %/DDI. Against it:
- OC[C@@H]1CC[C@H](n2cnc3c(O)ncnc32)O1 [Comp. Ex. 1, 2′,3′-dideoxyinosine, reference compound] — higher, 2.24 %/DDI
- OC[C@@H]1CC[C@H](n2cnc3c(O)ncnc32)O1 [Comp. Ex. 2, 2′,3′-dideoxyinosine, reference compound] — higher, 1.91 %/DDI
- OC[C@@H]1CC[C@H](n2cnc3c(O)ncnc32)O1 [Comp. Ex. 3, 2′,3′-dideoxyinosine, reference compound] — higher, 2.21 %/DDI
- OC[C@@H]1CC[C@H](n2cnc3c(O)ncnc32)O1 [Comp. Ex. 4, 2′,3′-dideoxyinosine, reference compound] — higher, 2.20 %/DDI
- OC[C@@H]1CC[C@H](n2cnc3c(O)ncnc32)O1 [Ex. 1, 2′,3′-dideoxyinosine] — higher, 0.45 %/DDI
- OC[C@@H]1CC[C@H](n2cnc3c(O)ncnc32)O1 [Ex. 2, 2′,3′-dideoxyinosine] — higher, 0.48 %/DDI
- OC[C@@H]1CC[C@H](n2cnc3c(O)ncnc32)O1 [Ex. 4, 2′,3′-dideoxyinosine] — higher, 0.54 %/DDI

same assay, conditions: crystals stored at 60° C., at RH75% for 7 days; Table 3, phosphate removed by suspending in water vs Example 3

Point of comparison: OC[C@@H]1CC[C@H](n2cnc3c(O)ncnc32)O1 [Comp. Ex. 5, 2′,3′-dideoxyinosine, reference compound], “Increase … (%/DDI)” value 4.32 %/DDI. Against it:
- OC[C@@H]1CC[C@H](n2cnc3c(O)ncnc32)O1 [Ex. 3, 2′,3′-dideoxyinosine] — lower, 0.20 %/DDI

same assay, conditions: crystals stored at 60° C., at RH75% for 7 days; Table 4, degree of washing changed per sample

Point of comparison: OC[C@@H]1CC[C@H](n2cnc3c(O)ncnc32)O1 [Ex. 12, 2′,3′-dideoxyinosine], “Increase … (%/DDI)” value 1.26 %/DDI. Against it:
- OC[C@@H]1CC[C@H](n2cnc3c(O)ncnc32)O1 [Comp. Ex. 6, 2′,3′-dideoxyinosine, reference compound] — higher, 2.47 %/DDI
- OC[C@@H]1CC[C@H](n2cnc3c(O)ncnc32)O1 [Comp. Ex. 7, 2′,3′-dideoxyinosine, reference compound] — higher, 2.24 %/DDI
- OC[C@@H]1CC[C@H](n2cnc3c(O)ncnc32)O1 [Comp. Ex. 8, 2′,3′-dideoxyinosine, reference compound] — higher, 2.20 %/DDI
- OC[C@@H]1CC[C@H](n2cnc3c(O)ncnc32)O1 [Comp. Ex. 9, 2′,3′-dideoxyinosine, reference compound] — higher, 2.21 %/DDI
- OC[C@@H]1CC[C@H](n2cnc3c(O)ncnc32)O1 [Comp. Ex. 10, 2′,3′-dideoxyinosine, reference compound] — higher, 1.91 %/DDI
- OC[C@@H]1CC[C@H](n2cnc3c(O)ncnc32)O1 [Ex. 5, 2′,3′-dideoxyinosine] — higher, 1.38 %/DDI
- OC[C@@H]1CC[C@H](n2cnc3c(O)ncnc32)O1 [Ex. 6, 2′,3′-dideoxyinosine] — lower, 1.03 %/DDI
- OC[C@@H]1CC[C@H](n2cnc3c(O)ncnc32)O1 [Ex. 7, 2′,3′-dideoxyinosine] — lower, 1.19 %/DDI
- OC[C@@H]1CC[C@H](n2cnc3c(O)ncnc32)O1 [Ex. 8, 2′,3′-dideoxyinosine] — lower, 0.90 %/DDI
- OC[C@@H]1CC[C@H](n2cnc3c(O)ncnc32)O1 [Ex. 9, 2′,3′-dideoxyinosine] — lower, 0.70 %/DDI
- OC[C@@H]1CC[C@H](n2cnc3c(O)ncnc32)O1 [Ex. 10, 2′,3′-dideoxyinosine] — lower, 0.97 %/DDI
- OC[C@@H]1CC[C@H](n2cnc3c(O)ncnc32)O1 [Ex. 11, 2′,3′-dideoxyinosine] — lower, 0.90 %/DDI
- OC[C@@H]1CC[C@H](n2cnc3c(O)ncnc32)O1 [Ex. 13, 2′,3′-dideoxyinosine] — lower, 1.04 %/DDI
